Results on 3 substances are retold here after paper PMC5318895, “Inhibition of N1-Src kinase by a specific SH3 peptide ligand reveals a role for N1-Src in neurite elongation by L1-CAM” (Scientific Reports, 2017).

Data set [1] deals with N1-Src. As to the kind of experiment: isoform specificity of N1-Src shRNA co-expressed with C-, N1- or N2-Src in COS7 cells. As to conditions: COS7, co-transfected 72 h with C-, N1- or N2-Src-FLAG; anti-FLAG immunoblot. The class given is cell-based, rat. On the technique in general: A western blot detects proteins with antibodies after separation by electrophoresis.
The subject of data set [2] is hippocampal neurons. As to the kind of experiment: neurite growth of hippocampal neurons after N1-Src shRNA knockdown. As to conditions: pSUPER-GFP shRNA, 48 h and 96 h post-transfection, versus empty plasmid or non-targeting shRNA, n = 90 neurons, Kruskal-Wallis. The class given is cell-based, rat. How it is done:
We next took advantage of the specificity of PDN1 to investigate the role of endogenous N1-Src in neurite outgrowth in cultured neurons. CFP-PDN1 or -PDN1(P5A) was transfected into 1 DIV CGNs and their morphology analysed after […]. During CGN development in vivo and immediately after plating in vitro, the cells grow two processes before polarising to yield a single axon and the second process retracts to become a dendrite and further dendrites are initiated. The axon then extends further before bifurcating. […] To further confirm that N1-Src regulates neurite growth we employed an shRNA expressing plasmid (pSUPER-GFP) to knockdown N1-Src in neurons. […] The successful N1-Src shRNA plasmid was transfected into hippocampal neurons, and the length of the longest neurite in GFP-positive neurons was assessed at 48 h and 96 h post-transfection. […] Thus, perturbing N1-Src activity with PDN1 or knockdown of the protein produces the same neurite phenotype in primary neuronal cultures.
Figure 5 Knockdown of N1-Src phenocopies the action of PDN1 in cultured neurons. […] (c,d) Cultured hippocampal neurons transfected with pSUPER-GFP (control) or pSUPER-GFP encoding N1-Src specific shRNA were analysed for length of longest neurite at 48 or 96 h. […] Data were normalised to the 48 h control and plotted as mean ± SEM, n = 90 neurons, with 30 cells analysed per condition in 3 independent experiments. […]

The subject of data set [3] is C-Src SH3 domain. As to conditions: cited from earlier work. An excerpt: The PDN1 consensus motif, RxPxxTxK, represents a novel SH3 ligand and lacks a canonical PxxP, thus confirming the six amino acid N1-Src splice insert has a dramatic effect on the structure of its SH3 domain. The ligand binding site in the majority of SH3 domains, including C-Src, comprises three pockets, two of which interact with the core xP motifs and one that adds specificity through binding flanking residues. […] Indeed, one of the few ...

For data set [4], the target named is T1, N1-Src (Rattus norvegicus, UniProt Q9WUD9). Nature of the data set: in vitro kinase assay, N1-Src phosphorylation of GST-Y-PDN substrates. The class given is biochemical. Details: His; made in house; host or cells: E. coli. As to conditions: PDN1 fused to an ideal Src substrate. How it is done: Figure 1 Identification of a novel ligand consensus sequence for the N1-Src SH3 domain. (a) Schematic of the kinase assay used to validate the effect of potential SH3 domain ligands on the phosphorylation of an ideal tyrosine motif (Y in bold) located upstream of a 10 aa linker and 12 aa phage peptide. (b) GST-Y-PDN1–6 substrates at 0.3, 0.9, 2.8 or 8.3 μM were phosphorylated in vitro with 5 nM C- or N1-Src at 30 °C and the phosphorylation detected by anti-phosphotyrosine immunoblot. Immunoblots are representative of three independent experiments. (c) Alignment of the phage display peptides ranked by N1-Src selectivity derived from results in (b). Shaded residues represent the common consensus sequence. […] (e) GST-Y-PDN1 substrates with the indicated point mutations (see insert) at 8.3 μM were phosphorylated by 5 nM N1-Src and the extent of phosphorylation was measured by densitometry of phosphotyrosine immunoreactivity. […]
The PDN peptides were tested for specificity for the N1-Src SH3 domain using a kinase assay in which a GST fusion of an ideal Src substrate peptide (Y) and a putative SH3 ligand peptide can distinguish SH3 domain specificity (Fig. 1a). Based on our previous study, we chose a range of substrate concentrations at which an enhancement in phosphorylation by docking to canonical peptide ligands for the C-Src SH3 domain can be detected (8.3 μM and below)[12]. […]

Data set [5] concerns the target T1, N1-Src. Nature of the data set: inhibition of N1-Src phosphorylation of GST-Y by free soluble peptide. The class given is biochemical. As to conditions: free soluble peptide titrated with 5 nM N1-Src and GST-Y; phosphotyrosine immunoblot densitometry; n = 3. Further details: His; made in house; host or cells: E. coli. How it is done: Previous studies have shown that soluble SH3 ligands can enhance Src family kinase activity in vitro[20][21]. […] This experiment raised the possibility that PDN1 could act as an N1-Src inhibitor in cells. […] We observed that COS7 cells transfected with N1-Src-FLAG underwent a striking change in morphology within 48 h (Fig. 3a). Similar to that previously observed in Xenopus epithelial cells, overexpression of the kinase induced the growth of neurite-like processes (Fig. 3b) and an approximate 35% reduction in area of the cell soma (Fig. 3c). […] Using cell morphology as a readout, we assessed the effect of CFP-PDN1 and PDN1(P5A) on N1-Src activity in cells. […] We also assessed the effect of PDN1 on N2-Src expressing cells because the first five amino acids of its SH3 insert are identical to that in N1-Src[3].
Figure 2 PDN1 inhibits N1-Src activity in vitro. GST-Y was incubated with 5 nM N1-Src and the indicated concentrations of either PDN1 or PDN1(P5A) and the extent of phosphorylation determined by densitometry of phosphotyrosine immunoreactivity. […]
Phosphorylation reactions were performed as previously described, prepared in kinase reaction buffer (100 mM Tris, 10 mM MgCl2, pH 7.5) and initiated by the addition of pre-warmed ATP (0.5 mM final concentration) and incubated at 30 °C for the indicated times. […] Due to the non-quantitative measurement of V, Vmax was not determined. […]

As to “5′-GGAAGGTGGATGTCAGAGA-3′ (expressed or natural sequence; target site or template, no part of the molecule) [N1-Src shRNA]”, in data set [1], the “isoform specificity of knockdown” value is on record as “confirmed isoform specificity”. Moreover, the “inhibition of neurite growth (length of longest neurite)” value in data set [2] is “significant time-dependent inhibition of neurite growth”.
For the substance “RSLRPLPPLPPRPPF [phage display ligand selected by the PI3-kinase SH3 domain]”, in data set [3], the “binding to the C-Src SH3 domain” value is recorded as “did not bind the C-Src SH3 domain”.
Consider “WHRMPAYTAKYP [PDN1, 12mer peptide derived from a phage display screen of the N1-Src SH3 domain]”, for which the “enhancement of substrate phosphorylation by N1-Src” value in data set [4] is reported as “enhanced the specific in vitro phosphorylation of an ideal substrate by N1-Src”. Moreover, the “inhibition of GST-Y phosphorylation” value in data set [5] is on record as “inhibited GST-Y phosphorylation in a dose dependent manner”.
